Test results: publication PMC12348798, “Synthesis and Molecular Modeling of Antioxidant and Anti-Inflammatory Five-Membered Heterocycle–Cinnamic Acid Hybrids” (Molecules, 2025)

What was measured:
soybean lipoxygenase = molecular target: T1, soybean lipoxygenase (Glycine max, UniProt P08170); assay: Inhibition of soybean lipoxygenase; type: biochemical; settings: for IC50: soybean lipoxygenase, sodium linoleate substrate, read-out: LOX IC50; for inhibition at 100 µM: read-out: LOX % Inhibition 100 μM
T1 construct: purchased Sigma Aldrich, Merck KGaA, Darmstadt, Germany
T1 sequence (P08170 1-839): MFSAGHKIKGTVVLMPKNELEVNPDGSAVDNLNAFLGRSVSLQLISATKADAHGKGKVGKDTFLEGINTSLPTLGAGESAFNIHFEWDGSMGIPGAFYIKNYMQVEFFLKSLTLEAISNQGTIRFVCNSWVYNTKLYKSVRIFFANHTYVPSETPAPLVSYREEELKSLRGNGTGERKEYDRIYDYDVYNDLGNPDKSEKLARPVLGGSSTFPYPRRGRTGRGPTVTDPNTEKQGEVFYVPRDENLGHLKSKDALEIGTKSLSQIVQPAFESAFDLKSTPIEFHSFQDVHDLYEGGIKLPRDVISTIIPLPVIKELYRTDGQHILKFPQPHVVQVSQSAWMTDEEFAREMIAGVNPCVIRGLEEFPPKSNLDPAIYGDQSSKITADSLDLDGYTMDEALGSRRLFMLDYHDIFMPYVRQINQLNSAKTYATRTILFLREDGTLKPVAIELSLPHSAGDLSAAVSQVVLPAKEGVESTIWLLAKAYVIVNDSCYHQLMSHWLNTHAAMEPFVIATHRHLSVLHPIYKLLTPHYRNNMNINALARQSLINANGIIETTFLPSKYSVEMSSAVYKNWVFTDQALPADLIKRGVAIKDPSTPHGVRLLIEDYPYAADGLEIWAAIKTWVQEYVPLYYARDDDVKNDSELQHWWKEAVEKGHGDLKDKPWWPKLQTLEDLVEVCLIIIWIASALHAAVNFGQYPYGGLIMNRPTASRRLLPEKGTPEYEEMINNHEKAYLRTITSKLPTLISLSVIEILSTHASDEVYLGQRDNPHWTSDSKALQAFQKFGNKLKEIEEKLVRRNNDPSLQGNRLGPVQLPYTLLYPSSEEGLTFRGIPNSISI
Protocol: Lipoxygenase (LOX) is responsible for the formation of leukotrienes, important inflammatory mediators. Due to its important role, it is considered as a therapeutic target for inflammatory diseases. Soybean lipoxygenase (LOX), a plant-derived enzyme, has been extensively utilized as a model for investigating the functional and structural properties of the lipoxygenase family, due to its significant homology with human 5-LOX [35, 61].
A 10 mM stock solution of the synthesized compounds was prepared in DMSO for the vitro assays. Serial dilutions were carried out to determine the IC50 values.
Sodium linoleate (0.1 mM), 0.2 mL of soybean lipoxygenase solution (1/9 × 10^−4 w/v in saline), and 10 μL of the test compound stock solution (10 mM in DMSO) were incubated at room temperature. Absorbance was recorded at 234 nm while monitoring the formation of 13-hydroperoxy-linoleic acid. […] To determine IC50 values, various concentrations of the test compounds were applied.

[1] = Inhibition of AAPH-induced linoleic acid peroxidation
Protocol: In the lipid peroxidation assay, 2,2′-azobis(2-methylpropionamidine)dihydrochloride (AAPH) was used as a peroxyl radical inducer, and sodium linoleate as a substrate. The formation of 13-hydroperoxy-linoleic acid from linoleic acid was monitored by measuring absorbance at 234 nm. Trolox was used as a reference compound.
(§1) A 10 mM stock solution of the synthesized compounds was prepared in DMSO for the vitro assays. Serial dilutions were carried out to determine the IC50 values. Each experiment was conducted six times, with standard deviations remaining below 10% of the mean.
AAPH was employed as an inducer of alkyl peroxyl radicals. In this experiment, the compounds’ ability to inhibit the oxidation of linoleic acid by alkyl peroxyl radicals was assessed by monitoring the change in absorbance at 234 nm due to the formation of 13-hydroperoxy-linoleic acid. Trolox was used as the reference compound [59, 68].

[2] = Interaction with the stable free radical DPPH (reducing activity)
Protocol: Firstly, the synthesized derivatives were evaluated for their ability to interact with the stable free radical 2,2-diphenyl-1-picrylhydrazyl (DPPH) at a concentration of 100 μM after 20 and 60 min (Table 2). DPPH is a valuable tool for studying antioxidant activity. Its reactivity with lipophilic compounds is not solely determined by their lipophilicity. The specific chemical structure of the antioxidant, the solvent used, and other factors can all influence the interaction with DPPH. However, lipophilic compounds tend to be well dissolved in organic solvents reacting with DPPH. Based on previous findings, the antioxidant activity is related with lipophilicity.
as §1
An in vitro study was conducted as previously described by our group. Free radical scavenging activity was evaluated by measuring absorbance at 517 nm after 20 and 60 min at room temperature.

[3] = system: Valosine-containing protein; parameters: method as in PMID 23245311; settings: from the literature; cited from earlier work

O=C(C=Cc1ccccc1)NNC(=S)Nc1ccccc1 [Compound 3a, 2-Cinnamoyl-N-phenylhydrazine-1-carbothioamide]
IC50 (soybean lipoxygenase): 8.5 µM | AAPH % Inhibition 100 μM [1]: 67% | RA % 100 μM 20 min [2]: 61% | RA % 100 μM 60 min [2]: 92%

O=C(/C=C/c1ccc(Cl)cc1)NNC(=S)Nc1ccccc1 [Compound 3b, (E)-2-(3-(4-Chlorophenyl)acryloyl)-N-phenylhydrazine-1-carbothioamide]
inhibition at 100 µM (soybean lipoxygenase): 49% | AAPH % Inhibition 100 μM [1]: 37% | RA % 100 μM 20 min [2]: 90% | RA % 100 μM 60 min [2]: 83%

O=C(/C=C/c1ccc(F)cc1)NNC(=S)Nc1ccccc1 [Compound 3c, (E)-2-(3-(4-Fluorophenyl)acryloyl)-N-phenylhydrazine-1-carbothioamide]
inhibition at 100 µM (soybean lipoxygenase): 45% | AAPH % Inhibition 100 μM [1]: 12% | RA % 100 μM 20 min [2]: 90% | RA % 100 μM 60 min [2]: 91%

O=C(/C=C/c1ccc(Br)cc1)NNC(=S)Nc1ccccc1 [Compound 3d, (E)-2-(3-(4-Bromophenyl)acryloyl)-N-phenylhydrazine-1-carbothioamide]
IC50 (soybean lipoxygenase): 8 µM | AAPH % Inhibition 100 μM [1]: 33% | RA % 100 μM 20 min [2]: 29% | RA % 100 μM 60 min [2]: 97%

CC(=O)Oc1ccc(/C=C/C(=O)NNC(=S)Nc2ccccc2)cc1 [Compound 3e, (E)-4-(3-Oxo-3-(2-(phenylcarbamothioyl)hydrazineyl)prop-1-en-1-yl)phenyl acetate]
IC50 (soybean lipoxygenase): 9.75 µM | AAPH % Inhibition 100 μM [1]: 47% | RA % 100 μM 20 min [2]: 83% | RA % 100 μM 60 min [2]: 21%

O=C(/C=C/c1ccc2c(c1)OCO2)NNC(=S)Nc1ccccc1 [Compound 3f, (E)-2-(3-(Benzo[d][1,3]dioxol-5-yl)acryloyl)-N-phenylhydrazine-1-carbothioamide]
IC50 (soybean lipoxygenase): 35 µM | AAPH % Inhibition 100 μM [1]: 58% | RA % 100 μM 20 min [2]: 70% | RA % 100 μM 60 min [2]: 89%

O=C(/C=C/c1ccc(OCc2ccc(Br)cc2)cc1)NNC(=S)Nc1ccccc1 [Compound 3g, (E)-2-(3-(4-((4-Bromobenzyl)oxy)phenyl)acryloyl)-N-phenylhydrazine-1-carbothioamide]
IC50 (soybean lipoxygenase): 10 µM | AAPH % Inhibition 100 μM [1]: 91% | RA % 100 μM 20 min [2]: 98% | RA % 100 μM 60 min [2]: 87%

Sc1nnc(/C=C/c2ccccc2)n1-c1ccccc1 [Compound 4a, (E)-4-Phenyl-5-styryl-4H-1,2,4-triazole-3-thiol]
IC50 (soybean lipoxygenase): 7.5 µM | AAPH % Inhibition 100 μM [1]: 26% | RA % 100 μM 20 min [2]: 74% | RA % 100 μM 60 min [2]: 93%

Sc1nnc(/C=C/c2ccc(Cl)cc2)n1-c1ccccc1 [Compound 4b, (E)-5-(4-Chlorostyryl)-4-phenyl-4H-1,2,4-triazole-3-thiol]
IC50 (soybean lipoxygenase): 4.5 µM | AAPH % Inhibition 100 μM [1]: 34% | RA % 100 μM 20 min [2]: 33% | RA % 100 μM 60 min [2]: 88%

Fc1ccc(/C=C/c2nnc(S)n2-c2ccccc2)cc1 [Compound 4c, (E)-5-(4-Fluorostyryl)-4-phenyl-4H-1,2,4-triazole-3-thiol]
inhibition at 100 µM (soybean lipoxygenase): 35% | AAPH % Inhibition 100 μM [1]: 94% | RA % 100 μM 20 min [2]: 82% | RA % 100 μM 60 min [2]: 93%

Sc1nnc(/C=C/c2ccc(Br)cc2)n1-c1ccccc1 [Compound 4d, (E)-5-(4-Bromostyryl)-4-phenyl-4H-1,2,4-triazole-3-thiol]
IC50 (soybean lipoxygenase): 97.5 µM | AAPH % Inhibition 100 μM [1]: 20% | RA % 100 μM 20 min [2]: 68% | RA % 100 μM 60 min [2]: 57% | Valosine-containing protein inhibition [3]: allosteric Valosine-containing protein inhibitor

CC(=O)Oc1ccc(/C=C/c2nnc(S)n2-c2ccccc2)cc1 [Compound 4e, (E)-4-(2-(5-Mercapto-4-phenyl-4H-1,2,4-triazol-3-yl)vinyl)phenyl acetate]
IC50 (soybean lipoxygenase): 5.5 µM | AAPH % Inhibition 100 μM [1]: 87% | RA % 100 μM 20 min [2]: 96% | RA % 100 μM 60 min [2]: 93%

Sc1nnc(/C=C/c2ccc3c(c2)OCO3)n1-c1ccccc1 [Compound 4f, (E)-5-(2-(Benzo[d][1,3]dioxol-5-yl)vinyl)-4-phenyl-4H-1,2,4-triazole-3-thiol]
IC50 (soybean lipoxygenase): 7.5 µM | AAPH % Inhibition 100 μM [1]: 71% | RA % 100 μM 20 min [2]: 87% | RA % 100 μM 60 min [2]: 76%

Sc1nnc(/C=C/c2ccc(OCc3ccc(Br)cc3)cc2)n1-c1ccccc1 [Compound 4g, (E)-5-(4-((4-Bromobenzyl)oxy)styryl)-4-phenyl-4H-1,2,4-triazole-3-thiol]
IC50 (soybean lipoxygenase): 4.5 µM | AAPH % Inhibition 100 μM [1]: 50% | RA % 100 μM 20 min [2]: 97% | RA % 100 μM 60 min [2]: 92%

C(=C\c1nnc(Nc2ccccc2)o1)/c1ccccc1 [Compound 5a, (E)-N-Phenyl-5-styryl-1,3,4-oxadiazol-2-amine]
IC50 (soybean lipoxygenase): 32.5 µM | AAPH % Inhibition 100 μM [1]: 17% | RA % 100 μM 60 min [2]: 7%

Clc1ccc(/C=C/c2nnc(Nc3ccccc3)o2)cc1 [Compound 5b, (E)-5-(4-Chlorostyryl)-N-phenyl-1,3,4-oxadiazol-2-amine]
IC50 (soybean lipoxygenase): 18 µM | RA % 100 μM 20 min [2]: 65% | RA % 100 μM 60 min [2]: 72%

Fc1ccc(/C=C/c2nnc(Nc3ccccc3)o2)cc1 [Compound 5c, (E)-5-(4-Fluorostyryl)-N-phenyl-1,3,4-oxadiazol-2-amine]
IC50 (soybean lipoxygenase): 17 µM | AAPH % Inhibition 100 μM [1]: 63% | RA % 100 μM 20 min [2]: 92% | RA % 100 μM 60 min [2]: 82%

C(=C\c1nnc(Nc2ccccc2)s1)/c1ccccc1 [Compound 6a, (E)-N-Phenyl-5-styryl-1,3,4-thiadiazol-2-amine]
IC50 (soybean lipoxygenase): 5 µM | AAPH % Inhibition 100 μM [1]: 60% | RA % 100 μM 20 min [2]: 98% | RA % 100 μM 60 min [2]: 96%

CC(Cc1ccc(O)c(O)c1)C(C)Cc1ccc(O)c(O)c1 (centres unmarked) [NDGA, Nordihydroguaiaretic acid, reference compound]
RA % 100 μM 20 min [2]: 87% | RA % 100 μM 60 min [2]: 93%

Cc1c(C)c2c(c(C)c1O)CCC(C)(C(=O)O)O2 (centres unmarked) [Trolox, 6-hydroxy-2,5,7,8-tetramethyl-chroman2-carboxylic acid, reference compound]
AAPH % Inhibition 100 μM [1]: 92%
